Values quoted from earlier work as cited in patent US20130046087A1, “Substituted Cyclodextrin Derivatives Useful As Intermediates For Producing Biologically Active Materials” (Arcarios BV, priority 2010, published 2013).

System: rabbit model of experimental osteoarthritis
Details: subcutaneously administered, per Osteoarthritis and Cartilage (2008) 16:986-993

Substance: β-cyclodextrin polysulfate
- effect on cartilage lesions and osteocyte formation in the affected joints: reduced the cartilage lesions and osteocyte formation
